Like-named read-outs stand apart in the source and are kept apart here.

Test [1] relates to mixed lymphocyte reaction (MLR). The settings on record: in vitro; cited from earlier work.
Test [2] deals with T1, δ receptor (Mus musculus, UniProt P32300). The settings on record: for Bmax: [3H]NTI, μ receptor gene line; for NTI Bmax: kappa receptor gene line.
The test system of a further test is transplant rejection. The following applies: in vivo; cited from earlier work.
Test [3] addresses T1, δ receptor. Put plainly: biochemical.
A further test deals with adenylate cyclase. Put plainly: Adenylate cyclase activity in brain homogenates after morphine deficiency induced by naloxone. The test is classed as in vivo, mice. Further details: Adenylate cyclase activity stimulated by forskolin: dose or concentration left out as unconfirmed. The settings on record: for increase in adenylate cyclase activity in the striatum: naloxone after chronic morphine; for Adenylate cyclase activity stimulated by forskolin: FK; for Adenylate cyclase activity stimulated by forskolin / Adenylate cyclase activity, basal: chronic morphine then naloxone.

T1 sequence (P32300 whole entry): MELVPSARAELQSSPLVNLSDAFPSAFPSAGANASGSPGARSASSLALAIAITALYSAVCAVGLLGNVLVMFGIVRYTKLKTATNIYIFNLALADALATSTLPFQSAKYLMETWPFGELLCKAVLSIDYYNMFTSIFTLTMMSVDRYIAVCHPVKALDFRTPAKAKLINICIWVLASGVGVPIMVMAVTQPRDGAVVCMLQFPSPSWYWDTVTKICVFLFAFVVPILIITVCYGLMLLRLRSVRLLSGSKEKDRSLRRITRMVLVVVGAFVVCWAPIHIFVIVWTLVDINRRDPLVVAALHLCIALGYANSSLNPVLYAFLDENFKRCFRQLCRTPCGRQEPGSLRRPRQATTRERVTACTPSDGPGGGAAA

Regarding `Oc1ccc2c3c1O[C@H]1c4[nH]c5ccccc5c4C[C@@]4(O)[C@@H](C2)N(CC2CC2)CC[C@]314` [NTI, naltrindole], the “effect on the mixed lymphocyte reaction (MLR)” value in test [1] is recorded as “suppressant effect”. Further, the results for the Bmax at δ receptor [2] (heterozygous +/−), on δ receptor [2] (homozygous −/−) and at δ receptor [2] (wild +/+) were 0.103, 0.124 and 0.095, respectively. Besides, the “binding curves (Scatchard) compared between genotypes” value at δ receptor [2] (brains of +/+, +/− and −/− MOR mice) is “superimposable”. For the same molecule, at δ receptor [2] (kappa mutant animals with respect to wild animals), the “change in binding of the delta ligands” value is “no change in the binding”. Further, the “NTI Bmax” value was determined as 0.170 pmole/mg proteins at δ receptor [2] (heterozygous +/−), 0.190 pmole/mg proteins at δ receptor [2] (homozygous −/−) and 0.204 pmole/mg proteins on δ receptor [2] (wild +/+). The “effect on transplant rejection” value in the test with transplant rejection is given as “prevents transplant rejection”. The Kd at δ receptor [3] (Kd, [3H]NTI, μ receptor gene line, heterozygous +/−) was determined as 0.075 nM; on δ receptor [3] (Kd, [3H]NTI, μ receptor gene line, homozygous −/−), 0.082 nM; at δ receptor [3] (Kd, [3H]NTI, μ receptor gene line, wild +/+), 0.068 nM; on δ receptor [3] (NTI Kd, kappa receptor gene line, heterozygous +/−), 0.109 nM; on δ receptor [3] (NTI Kd, kappa receptor gene line, homozygous −/−) it was 0.114 nM; at δ receptor [3] (NTI Kd, kappa receptor gene line, wild +/+) it was 0.108 nM.

In the case of `CN1CC[C@]23c4c5ccc(O)c4O[C@H]2[C@@H](O)C=C[C@H]3[C@H]1C5` [morphine], the “increase in adenylate cyclase activity in the striatum” value in the test on adenylate cyclase (animals deficient in the μ receptor) was “absent”; in the test on adenylate cyclase (wild mice) it was 30%. In addition, the “Adenylate cyclase activity stimulated by forskolin” value in the test on adenylate cyclase (cerebellum, μ +/+) is recorded as 966 ± 55 pmoles of cyclic AMP formed/minute/mg of protein; in the test with adenylate cyclase (cerebellum, μ −/−) it was 979 ± 73 pmoles of cyclic AMP formed/minute/mg of protein; in the test on adenylate cyclase (striatum, μ +/+), 1473 ± 43 pmoles of cyclic AMP formed/minute/mg of protein; in the test on adenylate cyclase (striatum, μ −/−), 1158 ± 108 pmoles of cyclic AMP formed/minute/mg of protein. Further, the “Adenylate cyclase activity, basal” value is recorded as 209 ± 30 pmoles of cyclic AMP formed/minute/mg of protein in the test with adenylate cyclase (cerebellum, μ +/+); 213 ± 42 pmoles of cyclic AMP formed/minute/mg of protein in the test on adenylate cyclase (cerebellum, μ −/−); 401 ± 22 pmoles of cyclic AMP formed/minute/mg of protein with adenylate cyclase (striatum, μ +/+); 304 ± 28 pmoles of cyclic AMP formed/minute/mg of protein with adenylate cyclase (striatum, μ −/−).

The record behind these values is US6632977B2 (priority 1996, dated 2003).
